Experimental data published in ChEMBL document CHEMBL1201862, “PubChem BioAssay data set” (2004).
The source made the active and inactive calls.

Experiments:
Procathepsin L = Procathepsin L (Homo sapiens, UniProt P07711)
Aspartyl aminopeptidase = biological target: T1, Aspartyl aminopeptidase (Plasmodium falciparum 3D7, UniProt Q8I2J3)
T1 sequence (Q8I2J3 whole entry): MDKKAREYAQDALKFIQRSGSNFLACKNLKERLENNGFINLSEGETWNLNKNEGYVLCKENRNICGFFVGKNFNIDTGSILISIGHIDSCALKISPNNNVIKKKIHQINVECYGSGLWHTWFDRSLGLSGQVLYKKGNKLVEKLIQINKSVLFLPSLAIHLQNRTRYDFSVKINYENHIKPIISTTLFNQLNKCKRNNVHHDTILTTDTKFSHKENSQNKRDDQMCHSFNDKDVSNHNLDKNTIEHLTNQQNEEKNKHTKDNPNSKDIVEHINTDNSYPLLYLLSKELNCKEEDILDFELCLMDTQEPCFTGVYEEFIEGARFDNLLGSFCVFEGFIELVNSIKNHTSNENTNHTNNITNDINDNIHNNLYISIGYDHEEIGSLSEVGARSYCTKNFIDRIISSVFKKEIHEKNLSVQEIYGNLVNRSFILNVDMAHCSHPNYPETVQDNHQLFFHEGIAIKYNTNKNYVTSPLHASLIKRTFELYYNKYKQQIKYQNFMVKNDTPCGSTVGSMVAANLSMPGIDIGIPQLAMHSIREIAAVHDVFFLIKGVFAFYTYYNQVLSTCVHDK

[1] = Luminescence Cell-Based Dose Confirmation HTS to Identify Activators of 5'UTR Stem-Loop Driven Alpha-Synuclein mRNA Translation in H4 Neuroglioblastoma Cells. [Related pubchem assays: 1829 (Project Summary), 1814 (Primary HTS)]; assay type: functional
[2] = Luminescence Cell-Based Dose Response HTS to Identify Activators of Luciferase Translation or Activity in H4 […] Cells. [Related pubchem assays: 1829 (Project Summary), 1814 (Primary HTS)]; assay type: functional
Beta-galactosidase = Beta-galactosidase (Escherichia coli, UniProt Q8VNN2); assay: detection-enzyme interference by beta-gal modulators – biochemical, E. coli enzyme, set 3, artefact control for CCR6 antagonist project, dose response (AID 504712); assay type: functional
Beta-galactosidase, sequence (Q8VNN2 whole entry): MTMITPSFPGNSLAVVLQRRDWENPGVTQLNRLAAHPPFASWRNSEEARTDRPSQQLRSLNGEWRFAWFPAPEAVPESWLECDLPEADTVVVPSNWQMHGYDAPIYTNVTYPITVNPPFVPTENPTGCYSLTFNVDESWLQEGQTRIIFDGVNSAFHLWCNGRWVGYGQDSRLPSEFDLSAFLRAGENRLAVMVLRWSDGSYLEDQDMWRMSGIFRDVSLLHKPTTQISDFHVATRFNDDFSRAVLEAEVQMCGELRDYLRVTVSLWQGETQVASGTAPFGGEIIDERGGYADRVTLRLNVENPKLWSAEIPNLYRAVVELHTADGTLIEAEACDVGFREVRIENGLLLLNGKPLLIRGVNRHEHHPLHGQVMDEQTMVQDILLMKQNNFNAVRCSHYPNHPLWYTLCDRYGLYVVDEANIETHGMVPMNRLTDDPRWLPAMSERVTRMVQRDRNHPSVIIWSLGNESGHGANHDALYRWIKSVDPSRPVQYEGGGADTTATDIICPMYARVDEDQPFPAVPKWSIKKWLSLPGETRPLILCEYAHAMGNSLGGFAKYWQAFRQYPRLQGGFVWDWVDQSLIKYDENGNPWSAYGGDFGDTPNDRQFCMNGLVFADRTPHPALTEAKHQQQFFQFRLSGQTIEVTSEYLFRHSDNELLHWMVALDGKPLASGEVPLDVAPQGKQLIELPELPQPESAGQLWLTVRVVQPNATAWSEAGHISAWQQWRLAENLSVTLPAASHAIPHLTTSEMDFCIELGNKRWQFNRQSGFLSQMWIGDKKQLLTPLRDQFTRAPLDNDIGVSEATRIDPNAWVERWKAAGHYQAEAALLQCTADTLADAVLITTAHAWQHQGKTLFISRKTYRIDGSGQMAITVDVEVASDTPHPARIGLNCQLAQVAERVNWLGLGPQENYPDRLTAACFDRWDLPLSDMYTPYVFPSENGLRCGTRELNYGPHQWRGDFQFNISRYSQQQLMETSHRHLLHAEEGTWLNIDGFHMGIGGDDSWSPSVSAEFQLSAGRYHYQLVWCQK

[3] = biological target: C-C chemokine receptor type 6 (Homo sapiens, UniProt P51684); assay: antagonism of CCR6 beta-arrestin recruitment – cell-based, luminescent beta-arrestin readout, dose response (AID 504728); assay type: functional
C-C chemokine receptor type 6, sequence (P51684 whole entry): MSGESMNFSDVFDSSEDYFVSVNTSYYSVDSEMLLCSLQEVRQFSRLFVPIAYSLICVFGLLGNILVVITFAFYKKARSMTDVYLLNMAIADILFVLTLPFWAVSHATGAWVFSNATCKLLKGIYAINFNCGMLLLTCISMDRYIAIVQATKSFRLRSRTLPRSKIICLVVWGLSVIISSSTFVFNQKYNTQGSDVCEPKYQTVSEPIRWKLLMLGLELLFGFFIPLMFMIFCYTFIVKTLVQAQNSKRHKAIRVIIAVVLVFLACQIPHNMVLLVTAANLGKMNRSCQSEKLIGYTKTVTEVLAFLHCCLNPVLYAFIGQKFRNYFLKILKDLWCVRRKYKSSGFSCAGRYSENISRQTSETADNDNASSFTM

H4 = assay: Luminescence Cell-Based Dose Response HTS to Identify Activators of 5'UTR Stem-Loop Driven Prion Protein mRNA Translation in H4 Neuroglioblastoma Cells. [Related pubchem assays: 1829 (Project Summary), 1814 (Primary HTS)]; assay type: functional; conditions: Homo sapiens
[4] = viability of uninfected HEp-2 cells – cell-based, HTS, cytotoxicity control for RSV inhibitor project, dose response (AID 2410); assay type: functional; conditions: human respiratory syncytial virus
[5] = DRD fibroblast viability loss – cell-based, non-viral oncogenic, luminescence, dose response (AID 1934); assay type: functional; conditions: Homo sapiens
SUMO-activating enzyme [6] = biological target: T2, SUMO-activating enzyme (Homo sapiens, UniProt Q9UBT2); assay: blockers of SAE1/SAE2–UBC9 SUMO transfer – biochemical, HTRF, uHTS, primary screen (AID 2006); assay type: protein-complex assay
T2 sequence (Q9UBE0 whole entry): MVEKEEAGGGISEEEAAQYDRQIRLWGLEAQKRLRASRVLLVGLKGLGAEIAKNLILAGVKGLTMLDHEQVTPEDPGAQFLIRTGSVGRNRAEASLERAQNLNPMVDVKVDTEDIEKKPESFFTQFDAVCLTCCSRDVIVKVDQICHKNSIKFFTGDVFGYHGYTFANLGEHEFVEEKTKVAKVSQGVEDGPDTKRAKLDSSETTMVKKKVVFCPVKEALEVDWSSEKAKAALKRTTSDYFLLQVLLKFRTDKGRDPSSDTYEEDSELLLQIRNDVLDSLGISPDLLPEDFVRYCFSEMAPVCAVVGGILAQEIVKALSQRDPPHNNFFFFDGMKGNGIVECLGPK
T2 sequence (Q9UBT2 whole entry): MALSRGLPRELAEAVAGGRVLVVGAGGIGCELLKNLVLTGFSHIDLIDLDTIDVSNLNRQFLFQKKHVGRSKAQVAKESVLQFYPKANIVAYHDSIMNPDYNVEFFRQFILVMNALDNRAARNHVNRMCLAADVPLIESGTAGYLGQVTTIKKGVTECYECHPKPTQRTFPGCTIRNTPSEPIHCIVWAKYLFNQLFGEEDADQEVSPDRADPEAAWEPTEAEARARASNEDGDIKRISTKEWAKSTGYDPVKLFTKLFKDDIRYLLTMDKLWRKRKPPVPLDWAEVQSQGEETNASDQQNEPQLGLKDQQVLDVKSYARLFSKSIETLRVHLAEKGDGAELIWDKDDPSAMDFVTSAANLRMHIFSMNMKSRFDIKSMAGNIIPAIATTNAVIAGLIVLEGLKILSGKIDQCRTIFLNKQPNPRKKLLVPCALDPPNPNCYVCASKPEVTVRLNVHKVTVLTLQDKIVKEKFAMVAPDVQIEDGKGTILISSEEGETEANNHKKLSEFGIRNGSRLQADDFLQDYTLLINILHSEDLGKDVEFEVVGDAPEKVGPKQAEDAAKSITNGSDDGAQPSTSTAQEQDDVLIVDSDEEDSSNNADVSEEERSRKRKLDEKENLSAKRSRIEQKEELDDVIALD

Galanin receptor type 2 = Galanin receptor type 2 (Homo sapiens, UniProt O43603); assay: Dose Response cell-based high-throughput screening assay to identify agonists of galanin receptor 2 (GALR2). [Related pubchem assays: 864 ]; assay type: functional
Galanin receptor type 2, sequence (O43603 whole entry): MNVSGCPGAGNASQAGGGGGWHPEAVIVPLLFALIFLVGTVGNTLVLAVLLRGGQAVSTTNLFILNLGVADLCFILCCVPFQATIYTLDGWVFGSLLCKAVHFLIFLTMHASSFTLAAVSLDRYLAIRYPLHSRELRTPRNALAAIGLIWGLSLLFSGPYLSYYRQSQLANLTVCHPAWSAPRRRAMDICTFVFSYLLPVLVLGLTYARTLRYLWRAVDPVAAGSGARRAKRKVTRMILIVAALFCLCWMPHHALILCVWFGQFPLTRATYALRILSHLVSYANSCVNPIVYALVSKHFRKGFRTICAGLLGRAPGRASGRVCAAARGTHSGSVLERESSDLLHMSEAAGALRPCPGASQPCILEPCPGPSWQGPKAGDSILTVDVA

BJ [7] = assay: BJ-TERT-LT-ST fibroblast viability loss – cell-based, RAS-independent, luminescence, dose response (AID 1935); assay type: functional; conditions: Homo sapiens;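 further: BJ fibroblasts immortalized with TERT plus LT and ST oncogenes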
BJ [8] = assay: cells; assay type: functional, cell-based; conditions: Homo sapiens
BJ [9] = assay: BJ-TERT fibroblast viability loss – cell-based, RAS-independent, luminescence, dose response (AID 1933); assay type: functional; conditions: Homo sapiens
SUMO-activating enzyme [10] = biological target: T2, SUMO-activating enzyme; assay: blockers of UBC9-mediated SUMO conjugation – biochemical, AlphaScreen, SUMOylation inhibitor project, confirmation (AID 2018); assay type: functional
[11] = biological target: Mothers against decapentaplegic homolog 3 (Homo sapiens, UniProt P84022); assay: blockers of Smad3 complex formation in lysate – cell lysate, secondary confirmation, chemiluminescent ELISA, HEK293 lysate, dose response (AID 1058); assay type: functional
Mothers against decapentaplegic homolog 3, sequence (P84022 whole entry): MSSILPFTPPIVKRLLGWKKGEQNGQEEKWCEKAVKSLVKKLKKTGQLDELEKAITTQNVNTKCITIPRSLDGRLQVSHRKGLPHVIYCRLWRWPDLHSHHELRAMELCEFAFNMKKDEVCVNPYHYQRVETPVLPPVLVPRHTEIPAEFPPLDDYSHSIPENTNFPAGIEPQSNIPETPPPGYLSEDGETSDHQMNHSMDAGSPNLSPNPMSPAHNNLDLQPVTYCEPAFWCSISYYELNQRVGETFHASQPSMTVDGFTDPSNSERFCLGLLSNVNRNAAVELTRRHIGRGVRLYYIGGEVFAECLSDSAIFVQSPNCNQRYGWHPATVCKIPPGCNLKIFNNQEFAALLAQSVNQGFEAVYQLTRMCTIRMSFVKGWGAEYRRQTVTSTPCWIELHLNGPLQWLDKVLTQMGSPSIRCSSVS

Staphylococcus aureus = assay: Inhibitors of Bacterial Quorum Sensing Structure Activity Relationship (SAR) Analysis: Dose Response Assay. [Related pubchem assays: 700, 527 ]; assay type: functional, organism-based
Cytochrome P450 2C9 = Cytochrome P450 2C9 (Homo sapiens, UniProt P11712); conditions: Potency
Cytochrome P450 2C9, sequence (P11712 whole entry): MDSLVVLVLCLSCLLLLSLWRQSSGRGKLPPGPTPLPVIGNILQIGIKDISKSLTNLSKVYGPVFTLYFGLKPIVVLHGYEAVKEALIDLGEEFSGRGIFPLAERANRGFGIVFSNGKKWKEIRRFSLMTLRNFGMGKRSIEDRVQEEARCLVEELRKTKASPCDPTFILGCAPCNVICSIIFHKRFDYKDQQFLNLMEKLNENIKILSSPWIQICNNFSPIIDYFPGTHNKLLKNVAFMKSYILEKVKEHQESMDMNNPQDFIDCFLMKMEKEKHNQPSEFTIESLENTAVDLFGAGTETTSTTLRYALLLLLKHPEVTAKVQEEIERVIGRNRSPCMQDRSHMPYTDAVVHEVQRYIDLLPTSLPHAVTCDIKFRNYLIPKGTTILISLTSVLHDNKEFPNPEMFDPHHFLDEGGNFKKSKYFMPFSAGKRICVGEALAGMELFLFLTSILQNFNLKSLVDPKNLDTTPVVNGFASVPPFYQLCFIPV

Cytochrome P450 3A4 = Cytochrome P450 3A4 (Homo sapiens, UniProt P08684); conditions: Potency;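 further: confirmatory qHTS run detecting inhibitors and substrates of CYP3A4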
Cytochrome P450 3A4, sequence (P08684 whole entry): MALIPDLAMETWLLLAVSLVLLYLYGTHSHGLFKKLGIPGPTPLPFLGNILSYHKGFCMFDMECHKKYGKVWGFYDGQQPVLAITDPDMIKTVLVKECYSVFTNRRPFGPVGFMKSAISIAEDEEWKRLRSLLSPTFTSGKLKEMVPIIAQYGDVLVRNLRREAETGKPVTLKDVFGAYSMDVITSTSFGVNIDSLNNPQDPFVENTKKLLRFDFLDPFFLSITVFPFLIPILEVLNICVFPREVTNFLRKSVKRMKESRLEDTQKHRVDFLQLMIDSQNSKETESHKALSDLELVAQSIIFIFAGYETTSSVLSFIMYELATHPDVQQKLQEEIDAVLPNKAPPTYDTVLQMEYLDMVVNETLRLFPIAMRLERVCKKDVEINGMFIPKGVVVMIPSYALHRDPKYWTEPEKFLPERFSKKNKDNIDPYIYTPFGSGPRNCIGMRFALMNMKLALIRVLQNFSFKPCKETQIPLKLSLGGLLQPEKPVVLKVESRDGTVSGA

[12] = Luminescence-based dose response cell-based high throughput screening assay for cytotoxic compounds using the IEC-6 intestinal epithelial cell line. [Related pubchem assays: 1858 (Summary AID.), 1825 (Counterscreen.), 1907 (Confirmation screen.)]; assay type: functional
Insulin-degrading enzyme = biological target: T3, Insulin-degrading enzyme (Homo sapiens, UniProt P14735); assay: Dose Response: Fluorescence polarization-based cell-based high throughput dose response assay for inhibitors of insulin-degrading enzyme (IDE). [Related pubchem assays: 434962 (Primary screen (IDE inhibitors in singlicate)), 449730 (Counterscreen (Cytotoxicity in triplicate)), 435028 (Confirmation (IDE inhibitors in triplicate)), 434984 (Summary …; assay type: functional
T3 sequence (P14735 whole entry): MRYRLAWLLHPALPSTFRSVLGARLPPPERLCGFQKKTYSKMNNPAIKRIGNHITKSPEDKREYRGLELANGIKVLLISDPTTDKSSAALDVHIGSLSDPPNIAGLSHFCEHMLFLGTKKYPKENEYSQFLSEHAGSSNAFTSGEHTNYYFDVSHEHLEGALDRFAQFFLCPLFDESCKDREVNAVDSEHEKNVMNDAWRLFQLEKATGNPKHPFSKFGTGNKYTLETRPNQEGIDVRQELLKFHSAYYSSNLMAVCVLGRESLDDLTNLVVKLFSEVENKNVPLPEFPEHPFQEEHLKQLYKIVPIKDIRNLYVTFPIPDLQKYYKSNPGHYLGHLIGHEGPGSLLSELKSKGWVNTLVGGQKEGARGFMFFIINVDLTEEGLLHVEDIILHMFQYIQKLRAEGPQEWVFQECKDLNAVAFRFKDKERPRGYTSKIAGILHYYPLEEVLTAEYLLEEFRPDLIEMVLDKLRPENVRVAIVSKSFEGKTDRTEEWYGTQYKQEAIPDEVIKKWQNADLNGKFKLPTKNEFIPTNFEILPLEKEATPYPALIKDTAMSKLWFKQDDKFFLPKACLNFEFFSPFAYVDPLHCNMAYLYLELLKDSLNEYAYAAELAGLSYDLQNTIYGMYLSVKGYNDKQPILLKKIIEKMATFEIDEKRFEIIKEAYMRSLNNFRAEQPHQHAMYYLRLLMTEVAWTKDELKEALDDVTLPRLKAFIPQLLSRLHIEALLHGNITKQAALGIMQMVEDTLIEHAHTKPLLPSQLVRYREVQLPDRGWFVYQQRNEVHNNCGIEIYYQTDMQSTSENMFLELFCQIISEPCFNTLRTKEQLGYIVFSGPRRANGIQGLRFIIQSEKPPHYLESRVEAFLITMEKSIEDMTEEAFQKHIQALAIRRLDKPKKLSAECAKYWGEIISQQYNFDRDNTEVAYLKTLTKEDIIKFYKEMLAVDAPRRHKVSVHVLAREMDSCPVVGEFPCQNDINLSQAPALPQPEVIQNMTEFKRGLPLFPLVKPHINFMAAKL

[13] = Counterscreen for IDE inhibitors: Luminescence-based cell-based high throughput dose response assay to identify compounds that are cytotoxic to HEK cells. [Related pubchem assays: 434962 (Primary screen (IDE inhibitors in singlicate)), 449730 (Counterscreen (Cytotoxicity in triplicate)), 435028 (Confirmation (IDE inhibitors in triplicate)) …; assay type: functional; conditions: HEK293
[14] = biological target: Dual specificity tyrosine-phosphorylation-regulated kinase 1A (Rattus norvegicus, UniProt Q63470); assay type: biochemical, Homo sapiens
Oxytocin receptor = Oxytocin receptor (Homo sapiens, UniProt P30559); assay: Fluorescence-based cell-based high throughput dose response assay for agonists of the Oxytocin Receptor (OXTR). [Related pubchem assays: 2435 (Primary screen (OXTR agonists in singlicate)), 434991 (Counterscreen (V1R agonists in triplicate)), 2482 (Summary (OXTR agonists)), 434963 (Confirmation screen (OXTR agonists in triplicate))]; assay type: functional
Oxytocin receptor, sequence (P30559 whole entry): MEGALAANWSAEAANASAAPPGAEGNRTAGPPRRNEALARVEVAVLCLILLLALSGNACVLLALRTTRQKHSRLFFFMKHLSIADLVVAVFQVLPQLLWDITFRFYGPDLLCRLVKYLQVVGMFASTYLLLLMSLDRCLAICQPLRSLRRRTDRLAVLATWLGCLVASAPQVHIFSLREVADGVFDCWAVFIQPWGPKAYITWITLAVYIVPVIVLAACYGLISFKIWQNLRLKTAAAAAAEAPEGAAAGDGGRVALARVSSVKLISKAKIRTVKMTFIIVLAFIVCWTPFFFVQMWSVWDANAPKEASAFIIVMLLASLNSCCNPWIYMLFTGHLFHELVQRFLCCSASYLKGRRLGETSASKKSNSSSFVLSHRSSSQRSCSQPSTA

Vasopressin V1a receptor = Vasopressin V1a receptor (Homo sapiens, UniProt P37288); assay: Counterscreen for Oxytocin Receptor (OXTR) agonists: Fluorescence-based cell-based high throughput dose response assay to identify agonists of the vasopressin 1 receptor (V1R). [Related pubchem assays: 2435 (Primary screen (OXTR agonists in singlicate)), 434991 (Counterscreen (V1R agonists in triplicate)), 2482 (Summary (OXTR agonists)) …; assay type: functional

Procathepsin L, sequence (P07711 whole entry): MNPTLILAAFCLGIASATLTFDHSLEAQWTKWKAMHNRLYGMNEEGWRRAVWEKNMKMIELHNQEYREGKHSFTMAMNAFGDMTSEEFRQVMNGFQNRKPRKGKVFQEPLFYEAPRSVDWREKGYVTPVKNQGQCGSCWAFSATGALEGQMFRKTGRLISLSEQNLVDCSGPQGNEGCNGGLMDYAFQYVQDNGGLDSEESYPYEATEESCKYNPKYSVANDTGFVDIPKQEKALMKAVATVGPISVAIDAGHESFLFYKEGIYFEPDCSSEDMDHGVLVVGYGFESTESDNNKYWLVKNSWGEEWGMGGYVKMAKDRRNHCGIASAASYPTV

COc1cc([N+](=O)[O-])ccc1N=C(S)Nn1cnnc1
IC50 (Procathepsin L): > 59.6 µM (not active)
IC50 (Aspartyl aminopeptidase): 0.854 µM (active)

O=C(CSc1nccn1-c1ncc(C(F)(F)F)cc1Cl)c1ccc(Br)cc1
EC50 [1]: 0.247 µM (active)
EC50 [2]: 0.233 µM (active)
IC50 (Beta-galactosidase): > 66.6 µM (inactive)
IC50 [3]: > 66.6 µM (inactive)
EC50 (H4): 7.85 µM (active)

c1nc2cc(Cc3ccc4[nH]cnc4c3)ccc2[nH]1
IC50 (cells): 44.5 µM (active)
CC50 [4]: > 50 µM (active)

Cc1ccc2nsnc2c1NC(=O)c1ccc(-c2cc(Cl)ccc2Cl)o1
EC50 [5]: 5.89 µM (active)
IC50 (SUMO-activating enzyme [6]): 4.64 µM (active)
EC50 (Galanin receptor type 2): > 55.7 µM (not active)
EC50 (BJ [7]): 6.11 µM (inconclusive)
EC50 (BJ [8]): 14.4 µM (inconclusive)
EC50 (BJ [9]): 3.86 µM (inconclusive)
IC50 (SUMO-activating enzyme [10]): 18 µM (active)

COc1ccc(C(c2cc3c(cc2O)OCO3)N2CCCCC2)c(OC)c1 (stereo unspecified)
IC50 [11]: > 40 µM (not active)

O=C(O)c1cccnc1Nc1cccc(SC(F)(F)F)c1
IC50 (Staphylococcus aureus): 0.964 µM (active)

CCC12C=C(/C=C/c3ccccc3)C(CC)(C1)C(c1ccccc1)CC2=O (stereo unspecified)
AC50 (Cytochrome P450 2C9): 1.58 µM (inconclusive)
AC50 (Cytochrome P450 3A4): 6.31 µM (inconclusive)

CCN1CCCC1CNC(=O)C1CCN(Cc2nc(-c3cccc(Br)c3)oc2C)CC1 (stereo unspecified)
IC50 [12]: 6.51 µM (active)

COc1ccc2c(Cl)c(C(=O)N/N=C3\CCCC(=O)C3)sc2c1
IC50 (Insulin-degrading enzyme): > 55.9 µM (not active)
IC50 [13]: 26.2 µM (not active)
AC50 [14]: 1.98 µM (active)

Oc1ccc(Cl)cc1CNCc1ccc(Cl)nc1
EC50 (Oxytocin receptor): 19.5 µM (not active)
EC50 (Vasopressin V1a receptor): 17.5 µM (not active)
